# Test results from ChEMBL document CHEMBL3352457 (Bioorg Med Chem Lett, 2015).
# Active and inactive are the calls of the source. No cut-off for these calls is given here.
# Columns and labels:
# [1] = target: T1, Neurotensin receptor type 2 (Rattus norvegicus) (UniProt Q63384); assay: Agonist activity at rat neurotensin receptor type 2 expressed in CHOK1 cells assessed as increase in calcium release at 10 uM by FLIPR assay; type: functional, cell-based; details: CHO-K1
# T1 sequence (whole entry): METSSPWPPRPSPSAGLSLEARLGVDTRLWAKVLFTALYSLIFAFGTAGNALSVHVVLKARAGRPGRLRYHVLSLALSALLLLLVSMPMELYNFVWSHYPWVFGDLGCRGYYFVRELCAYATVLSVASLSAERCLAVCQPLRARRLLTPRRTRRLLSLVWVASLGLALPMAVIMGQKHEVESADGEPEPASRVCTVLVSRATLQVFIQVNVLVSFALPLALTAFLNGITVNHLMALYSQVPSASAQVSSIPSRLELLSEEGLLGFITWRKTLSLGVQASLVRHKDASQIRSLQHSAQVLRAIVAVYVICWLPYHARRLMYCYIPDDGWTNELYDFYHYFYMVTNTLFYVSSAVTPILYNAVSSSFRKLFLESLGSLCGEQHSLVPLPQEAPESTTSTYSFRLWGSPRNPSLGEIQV
# [2] = target: Neurotensin receptor type 1 (Rattus norvegicus) (UniProt P20789); assay: Agonist activity at rat neurotensin receptor type 1 expressed in CHOK1 cells assessed as increase in calcium release at 10 uM by FLIPR assay; type: functional, cell-based; details: CHO-K1
# [3] = target: Neurotensin receptor type 1 (Rattus norvegicus) (UniProt P20789); assay: Antagonist activity at rat neurotensin receptor type 1 expressed in CHOK1 cells assessed as inhibition of calcium release at 10 uM by FLIPR assay; type: functional, cell-based; details: CHO-K1
# [4] = target: T1, Neurotensin receptor type 2 (Rattus norvegicus); assay: Antagonist activity at rat neurotensin receptor type 2 expressed in CHOK1 cells assessed as inhibition of SR142948a-induced calcium release at 10 uM by FLIPR assay; type: functional, cell-based; details: CHO-K1
# [5] = target: T2, Neurotensin receptor type 2 (Rattus norvegicus, UniProt Q63384); assay: Antagonist activity at rat neurotensin receptor type 2 expressed in CHOK1 cells assessed as inhibition of SR142948a-induced calcium release by FLIPR assay; type: functional, cell-based, CHO-K1
# T2 sequence (Q63384 whole entry): T1 sequence (whole entry)
# [6] = target: T2, Neurotensin receptor type 2; assay: Displacement of [[…]]NT from rat neurotensin receptor type 2 expressed in CHOK1 cells by radioligand binding assay; type: cell-based, CHO-K1
# [7] = target: Neurotensin receptor type 1 (Rattus norvegicus) (UniProt P20789); assay: Agonist activity at rat neurotensin receptor type 1 expressed in CHOK1 cells assessed as increase in calcium release by FLIPR assay; type: functional, cell-based; details: CHO-K1
# [8] = target: T2, Neurotensin receptor type 2; assay: Agonist activity at rat neurotensin receptor type 2 expressed in CHOK1 cells assessed as increase in calcium release by FLIPR assay; type: functional, cell-based, CHO-K1
# [9] = target: Neurotensin receptor type 1 (Rattus norvegicus, UniProt P20789); assay: Displacement of [[…]]NT from rat neurotensin receptor type 1 expressed in CHOK1 cells by radioligand binding assay; type: cell-based, CHO-K1
# [10] = target: T1, Neurotensin receptor type 2 (Rattus norvegicus); assay: Agonist activity at rat neurotensin receptor type 2 expressed in CHOK1 cells assessed as increase in calcium release by FLIPR assay relative to SR142948a; type: functional, cell-based; details: CHO-K1
# Neurotensin receptor type 1 (Rattus norvegicus), sequence (P20789 whole entry): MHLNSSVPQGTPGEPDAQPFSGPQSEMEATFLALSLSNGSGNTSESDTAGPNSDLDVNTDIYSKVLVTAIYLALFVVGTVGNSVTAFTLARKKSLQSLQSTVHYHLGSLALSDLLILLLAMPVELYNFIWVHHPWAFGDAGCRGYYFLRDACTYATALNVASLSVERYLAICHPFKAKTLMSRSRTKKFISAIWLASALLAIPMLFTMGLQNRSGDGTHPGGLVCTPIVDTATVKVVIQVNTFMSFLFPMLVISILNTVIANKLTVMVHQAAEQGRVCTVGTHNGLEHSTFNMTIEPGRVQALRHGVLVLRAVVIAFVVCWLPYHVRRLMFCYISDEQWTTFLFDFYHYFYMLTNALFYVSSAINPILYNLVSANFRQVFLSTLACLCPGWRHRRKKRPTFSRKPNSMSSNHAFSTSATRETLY
# Neurotensin receptor type 1, sequence (P20789 whole entry): as above
Structure (SMILES),Activity [1],Activity [2],inhibition [3],inhibition [4],IC50 [5] [nM],Ki [6] [nM],Activity [7],EC50 [8] [nM],Ki [9] [nM],Emax [10] [%]
O=C(O)c1cccc(NC(=S)NC(=O)C(c2ccccc2)c2ccccc2)c1,inactive,inactive,inactive,inactive,–,–,–,–,–,–
CC(C)[C@H](NC(=O)/C(=C/c1ccccc1)NC(=O)c1ccccc1)C(=O)O,inactive,inactive,inactive,inactive,–,–,–,–,–,–
Cc1c(NC(=S)NC(=O)C(c2ccccc2)c2ccccc2)cccc1C(=O)O,inactive,inactive,inactive,inactive,–,–,–,–,–,–
COc1ccc(C(=O)N/C(=C\c2cccc([N+](=O)[O-])c2)C(=O)N[C@@H](CC(C)C)C(=O)O)cc1,inactive,inactive,inactive,inactive,–,–,–,–,–,–
O=C(O)c1ccc(NC(=S)NC(=O)C(c2ccccc2)c2ccccc2)cc1Cl,inactive,inactive,inactive,inactive,–,–,–,–,–,–
COc1ccccc1C(=O)N/C(=C\c1ccc2c(c1)OCO2)C(=O)N[C@H](C(=O)O)C(C)C (stereo in doubt),inactive,inactive,inactive,inactive,–,–,–,–,–,–
COc1cccc(OC)c1-c1nc(C(=O)N[C@H](C(=O)O)C2CCCCC2)nc2ccc(Cl)cc12,–,–,–,–,1070,474,inactive,–,–,–
COc1cccc(OC)c1-c1cc(C(=O)NC2(C(=O)O)C3CC4CC(C3)CC2C4)nn1-c1ccc(C(=O)N(C)CCCN(C)C)cc1C(C)C (centres undefined),–,–,–,–,–,7,–,18,2,–
O=C(O)c1cc(Nc2nc(-c3ccccc3)c3cc(Cl)ccc3n2)ccc1O,inactive,inactive,inactive,20%,–,–,–,–,–,–
COc1cccc(OC)c1-c1nc(C(=O)NC2(C(=O)O)CCCCC2)nc2ccc(Cl)cc12,–,–,–,–,–,959,inactive,145,–,26
COc1ccc(C(=O)O)cc1NC(=S)NC(=O)C(c1ccccc1)c1ccccc1,inactive,inactive,inactive,inactive,–,–,–,–,–,–
Cc1ccc(C(=O)O)cc1NC(=S)NC(=O)C(c1ccccc1)c1ccccc1,inactive,inactive,inactive,inactive,–,–,–,–,–,–
COc1ccc(C(=O)N/C(=C\c2ccccc2)C(=O)N[C@H](C(=O)O)C(C)C)cc1,inactive,inactive,inactive,inactive,–,–,–,–,–,–
O=C1NC(=O)N(c2ccc(C(=O)O)cc2)C(=O)/C1=C/c1c(OCc2ccccc2)ccc2ccccc12,inactive,inactive,inactive,inactive,–,–,–,–,–,–
